The sequences below were run on extract-stimulated PBMC cultures from allergic donors (IL-5 production) (assay: IL-5 ELISPOT of in vitro expanded PBMC). Conditions: donor U00023 (Figure 3), result in words.
Assay type: cell-based, human

| Sequence | IL-5 response |
| --- | --- |
| FAVATITHAAELQRV [Region 5] | no IL-5 |
| GNQNFLTVFDSTSCN [Region 7] | no IL-5 |
| PEQIQLLKKAFDAFD [Region 23] | associated only with IL-5 production |

These sequences were tested on extract-stimulated PBMC cultures from allergic donors (IFN-γ production) (assay: IFN-γ ELISPOT of in vitro expanded PBMC). Conditions: donor U00023 (Figure 3), result in words.
Assay type: cell-based, human

| Sequence | IFN-γ response |
| --- | --- |
| FAVATITHAAELQRV [Region 5] | produced IFN-γ |
| GNQNFLTVFDSTSCN [Region 7] | produced IFN-γ |

Each sequence was assayed on extract-stimulated PBMC cultures from allergic donors (assay: IL-5 plus IFN-γ ELISPOT of Bla g extract-expanded PBMC). Conditions: share of the region in the total Bla g peptide response (total SFC).
Assay type: cell-based, human

| Sequence | % Total response |
| --- | --- |
| FAVATITHAAELQRV [Region 5] | 3.5% |
| GNQNFLTVFDSTSCN [Region 7] | 0.2% |
| ISDFRAAIANYHYDA [Region 13] | 8.6% |
| PEQIQLLKKAFDAFD [Region 23] | 5.1% |

— publication PMC3392449 (Journal of Immunology (Baltimore, Md. : 1950), 2012)
